melting point: 219 to 222 °C (dec.)
SMILES: COc1cccc([C@H]2O[C@H](Cc3ncc(CC(=O)O)s3)C(=O)N(CC(C)(C)CO)c3ccc(Cl)cc32)c1OC [Example 1, (2-{[(3R,5S)-7-chloro-5-(2,3-dimethoxyphenyl)-1-(3-hydroxy-2,2-dimethylpropyl)-2-oxo-1,2,3,5-tetrahydro-4,1-benzoxazepin-3-yl]methyl}-1,3-thiazol-5-yl)acetic acid]

— patent US20080227770A1, “Benzoxazepine Compound” (Takeda Pharmaceutical Company Limited, priority 2003, published 2008)
